Reference: patent US9382228B2 (priority 2013, dated 2016)

Columns and labels:
osteoclast precursors = experiment: cells; assay type: cell-based; details: read-out: Osteoclast assay
Method: Osteoclast Tartrate-Resistant Acid Phosphatase Assay
Diluted compound was transferred to a 384-well black clear bottom plate. Two-thousand five hundred osteoclast precursors (Lonza, Walkersville, Md.) were added per well in growth media containing Receptor Activator of Nuclear Factor Kappa-beta ligand (RANKL) and M-CSF (R&D Systems, Minneapolis, Minn.). […] Tartrate-resistant acid phosphatase activity in the supernatant samples was determined using an acid phosphatase assay kit (Sigma, St. Louis, Mo.). Absorbance was measured at 550 nm using a plate reader. Data was analyzed using Prism software (Graphpad, San Diego, Calif.) to calculate IC50 values.

M-NFS-60 cells = experiment: cells; details: 67 h, read-out: M-NFS-60 cell proliferation
Method: M-NFS-6 Cell Proliferation Assay
A serial dilution of test compound was dispensed into a 384-well black clear bottom plate (Corning, Corning, N.Y.). Two thousand five hundred cells were added per well in 50 μL complete growth medium. […] IC50 values were calculated from a series of percent inhibition values determined at a range of inhibitor concentrations using software routines as implemented in the GraphPad Prism software package.

[1] = target: T1, unphosphorylated c-FMS kinase (uFMS, Seq. ID no. 1) (Homo sapiens, UniProt P07333); experiment: biochemical; details: uFMS, enzymatic assay, ATP 500 μM
T1 sequence (P07333 538-972): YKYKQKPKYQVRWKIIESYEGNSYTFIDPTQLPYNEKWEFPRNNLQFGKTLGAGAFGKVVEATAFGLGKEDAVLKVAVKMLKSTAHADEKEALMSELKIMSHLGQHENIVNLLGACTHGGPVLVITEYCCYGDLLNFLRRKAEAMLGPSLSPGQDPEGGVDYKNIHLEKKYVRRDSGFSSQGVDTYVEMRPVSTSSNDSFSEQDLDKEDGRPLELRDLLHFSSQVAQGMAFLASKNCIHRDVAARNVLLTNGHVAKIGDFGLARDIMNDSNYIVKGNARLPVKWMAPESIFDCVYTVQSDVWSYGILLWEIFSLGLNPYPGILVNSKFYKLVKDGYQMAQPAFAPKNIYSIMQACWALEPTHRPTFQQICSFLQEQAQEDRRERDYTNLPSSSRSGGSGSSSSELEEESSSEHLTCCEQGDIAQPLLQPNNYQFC

[2] = target: unphosphorylated c-KIT kinase (uKIT, Seq. ID no. 2) (Homo sapiens, UniProt P10721); experiment: biochemical; details: uKIT, enzymatic assay, ATP 2000 μM
Method: uKit kinase (Seq. ID No. 2) Assay
In this assay, the oxidation of NADH (thus the decrease at A340 nm) was continuously monitored spectrophometrically. […] The inhibition reaction was started by mixing serial diluted test compound with the above reaction mixture. The absorption at 340 nm was monitored continuously for 4 hours at 30° C. on Synergy 2 plate reader (BioTech).

[3] = target: unphosphorylated PDGFRβ kinase (uPDGFRβ, Seq. ID No. 3) (Homo sapiens, UniProt P09619); experiment: biochemical; details: uPDGFRb, enzymatic assay, ATP 500 μM
unphosphorylated PDGFRβ kinase (uPDGFRβ, Seq. ID No. 3), sequence (P09619 557-1106): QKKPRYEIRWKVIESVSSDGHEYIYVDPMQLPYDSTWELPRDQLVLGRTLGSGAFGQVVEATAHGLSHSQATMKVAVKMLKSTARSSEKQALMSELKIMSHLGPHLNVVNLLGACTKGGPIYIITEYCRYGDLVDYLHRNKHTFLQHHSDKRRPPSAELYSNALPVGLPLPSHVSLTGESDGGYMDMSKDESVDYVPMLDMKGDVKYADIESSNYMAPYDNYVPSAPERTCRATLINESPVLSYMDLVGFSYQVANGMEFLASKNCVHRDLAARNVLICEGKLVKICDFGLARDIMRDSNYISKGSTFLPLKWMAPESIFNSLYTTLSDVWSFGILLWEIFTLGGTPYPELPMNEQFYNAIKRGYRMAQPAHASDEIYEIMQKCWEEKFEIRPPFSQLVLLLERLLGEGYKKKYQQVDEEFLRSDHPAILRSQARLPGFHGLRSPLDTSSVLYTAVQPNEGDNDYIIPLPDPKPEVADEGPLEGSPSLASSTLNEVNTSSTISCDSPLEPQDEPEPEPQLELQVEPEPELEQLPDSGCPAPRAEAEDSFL

unphosphorylated c-KIT kinase (uKIT, Seq. ID no. 2), sequence (P10721 with tags, fused parts or gaps): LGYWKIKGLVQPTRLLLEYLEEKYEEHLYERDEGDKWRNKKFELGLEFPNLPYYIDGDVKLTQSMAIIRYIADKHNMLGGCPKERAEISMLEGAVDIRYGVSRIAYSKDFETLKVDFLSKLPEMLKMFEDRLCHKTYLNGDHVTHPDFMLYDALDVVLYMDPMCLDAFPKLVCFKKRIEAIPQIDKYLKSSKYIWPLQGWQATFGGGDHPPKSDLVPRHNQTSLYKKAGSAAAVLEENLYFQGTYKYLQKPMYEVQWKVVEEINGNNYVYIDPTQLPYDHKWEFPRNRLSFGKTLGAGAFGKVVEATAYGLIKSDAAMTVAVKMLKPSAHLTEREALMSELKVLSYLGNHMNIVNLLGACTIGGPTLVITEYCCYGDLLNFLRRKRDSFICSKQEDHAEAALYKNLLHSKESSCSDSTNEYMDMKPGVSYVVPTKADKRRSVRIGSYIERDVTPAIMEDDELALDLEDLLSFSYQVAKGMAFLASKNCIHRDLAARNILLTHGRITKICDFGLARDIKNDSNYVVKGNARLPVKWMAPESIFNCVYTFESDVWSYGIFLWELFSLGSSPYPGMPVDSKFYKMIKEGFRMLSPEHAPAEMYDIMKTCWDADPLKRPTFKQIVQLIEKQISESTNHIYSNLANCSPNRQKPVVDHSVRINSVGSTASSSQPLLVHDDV

| SMILES | IC50 (osteoclast precursors) [µM] | IC50 (M-NFS-60 cells) [µM] | IC50 [1] [µM] | IC50 [2] [µM] | IC50 [3] [µM] |
| --- | --- | --- | --- | --- | --- |
| Cc1nc(NC(=O)NC(=O)C(C)(C)C)ccc1Oc1ccnc(-c2ccc(C3CCN(C)CC3)cc2)c1 [Example 109, N-((6-methyl-5-((2-(4-(1-methylpiperidin-4-yl)phenyl)pyridin-4-yl)oxy)pyridin-2-yl)carbamoyl)pivalamide] | 0.01 to 0.1 | < 0.01 | < 0.01 | 0.1 to 1 | 0.1 to 1 |
| COC(C)(C)C(=O)NC(=O)Nc1ccc(Oc2ccnc(-c3ccc(C#N)nc3)c2)c(C)n1 [Example 110, N-((5-((6′-cyano-[2,3′-bipyridin]-4-yl)oxy)-6-methylpyridin-2-yl)carbamoyl)-2-methoxy-2-methylpropanamide] | 0.01 to 0.1 | 0.1 to 1 | 0.01 to 0.1 | > 1 | > 1 |
| Cc1cc(NC(=O)NC(=O)C(C)(C)C)nc(C)c1Oc1ccnc(-c2cnn(C)c2)c1 [Example 116, N-((4,6-dimethyl-5-((2-(1-methyl-1H-pyrazol-4-yl)pyridin-4-yl)oxy)pyridin-2-yl)carbamoyl)pivalamide] | 0.01 to 0.1 | 0.01 to 0.1 | < 0.01 | 0.01 to 0.1 | 0.01 to 0.1 |
| Cc1cc(NC(=O)NC(=O)C2CCOCC2)nc(C)c1Oc1ccnc(-c2cnn(C)c2)c1 [Example 117, N-((4,6-dimethyl-5-((2-(1-methyl-1H-pyrazol-4-yl)pyridin-4-yl)oxy)pyridin-2-yl)carbamoyl)tetrahydro-2H-pyran-4-carboxamide] | 0.01 to 0.1 | 0.01 to 0.1 | < 0.01 | 0.01 to 0.1 | 0.1 to 1 |
| Cc1nc(NC(=O)NC(=O)C(C)(C)C)ccc1Oc1ccnc(-c2ccc(N3CCN(C)CC3)cc2)c1 [Example 118, N-((6-methyl-5-((2-(4-(4-methylpiperazin-1-yl)phenyl)pyridin-4-yl)oxy)pyridin-2-yl)carbamoyl)pivalamide] | 0.01 to 0.1 | 0.01 to 0.1 | < 0.01 | 0.01 to 0.1 | 0.1 to 1 |
| Cc1cn(-c2cc(Oc3ccc(NC(=O)NC(=O)C(C)C)nc3C)ccn2)cn1 [Example 134, N-((6-methyl-5-((2-(4-methyl-1H-imidazol-1-yl)pyridin-4-yl)oxy)pyridin-2-yl)carbamoyl)isobutyramide] | 0.01 to 0.1 | 0.1 to 1 | 0.01 to 0.1 | > 1 | > 1 |
| Cc1cn(-c2cc(Oc3ccc(NC(=O)NC(=O)C4CCOC4)nc3C)ccn2)cn1 (stereo not drawn) [Example 136, N-((6-methyl-5-((2-(4-methyl-1H-imidazol-1-yl)pyridin-4-yl)oxy)pyridin-2-yl)carbamoyl)tetrahydrofuran-3-carboxamide] | 0.1 to 1 | 0.1 to 1 | 0.1 to 1 | > 1 | > 1 |
| CCC(=O)NC(=O)Nc1ccc(Oc2ccnc(-c3cn(C)cn3)c2)cn1 [Example 138, N-((5-((2-(1-methyl-1H-imidazol-4-yl)pyridin-4-yl)oxy)pyridin-2-yl)carbamoyl)propionamide] | 0.01 to 0.1 | 0.1 to 1 | 0.1 to 1 | > 1 | > 1 |
| COC(C)(C)C(=O)NC(=O)Nc1ccc(Oc2ccnc(-c3cnc(C)n3C)c2)cn1 [Example 139, N-((5-((2-(1,2-dimethyl-1H-imidazol-5-yl)pyridin-4-yl)oxy)pyridin-2-yl)carbamoyl)-2-methoxy-2-methylpropanamide] | 0.01 to 0.1 | 0.1 to 1 | 0.1 to 1 | > 1 | > 1 |
| CCc1nc(NC(=O)NC(=O)C2(OC)CC2)ccc1Oc1ccnc(-c2cnn(C)c2)c1 [Example 141, N-((6-ethyl-5-((2-(1-methyl-1H-pyrazol-4-yl)pyridin-4-yl)oxy)pyridin-2-yl)carbamoyl)-1-methoxycyclopropanecarboxamide] | 0.01 to 0.1 | 0.1 to 1 | 0.01 to 0.1 | > 1 | > 1 |
| Cc1cn(-c2cc(Oc3cnc(NC(=O)NC(=O)C(C)(C)C)cc3C)ccn2)cn1 [Example 148, N-((4-methyl-5-((2-(4-methyl-1H-imidazol-1-yl)pyridin-4-yl)oxy)pyridin-2-yl)carbamoyl)pivalamide] | 0.01 to 0.1 | < 0.01 | < 0.01 | 0.01 to 0.1 | > 1 |
| COC1(C(=O)NC(=O)Nc2ccc(Oc3ccnc(-c4cnc(C)s4)c3)cn2)CCCC1 [Example 149, 1-methoxy-N-((5-((2-(2-methylthiazol-5-yl)pyridin-4-yl)oxy)pyridin-2-yl)carbamoyl)cyclopentanecarboxamide] | 0.01 to 0.1 | 0.01 to 0.1 | < 0.01 | 0.1 to 1 | 0.1 to 1 |
| COC1(C(=O)NC(=O)Nc2ccc(Oc3ccnc(-c4cnc(C)s4)c3)cn2)CC1 [Example 155, 1-methoxy-N-((5-((2-(2-methylthiazol-5-yl)pyridin-4-yl)oxy)pyridin-2-yl)carbamoyl)cyclopropanecarboxamide] | 0.01 to 0.1 | 0.01 to 0.1 | < 0.01 | 0.1 to 1 | > 1 |
| Cc1ncc(-c2cc(Oc3ccc(NC(=O)NC(=O)C4CCOCC4)nc3)ccn2)s1 [Example 156, N-((5-((2-(2-methylthiazol-5-yl)pyridin-4-yl)oxy)pyridin-2-yl)carbamoyl)tetrahydro-2H-pyran-4-carboxamide] | 0.01 to 0.1 | 0.1 to 1 | 0.01 to 0.1 | 0.1 to 1 | > 1 |
| Cc1cn(-c2cc(Oc3ccc(NC(=O)NC(=O)C4(C)CCOCC4)nc3)ccn2)cn1 [Example 157, 4-methyl-N-((5-((2-(4-methyl-1H-imidazol-1-yl)pyridin-4-yl)oxy)pyridin-2-yl)carbamoyl)tetrahydro-2H-pyran-4-carboxamide] | 0.01 to 0.1 | 0.1 to 1 | 0.01 to 0.1 | 0.1 to 1 | 0.1 to 1 |
| COC1(C(=O)NC(=O)Nc2cc(C)c(Oc3ccnc(-n4cnc(C)c4)c3)cn2)CCCC1 [Example 162, 1-methoxy-N-((4-methyl-5-((2-(4-methyl-1H-imidazol-1-yl)pyridin-4-yl)oxy)pyridin-2-yl)carbamoyl)cyclopentanecarboxamide] | 0.01 to 0.1 | < 0.01 | < 0.01 | 0.01 to 0.1 | 0.1 to 1 |
| Cc1ncc(-c2cc(Oc3ccc(NC(=O)NC(=O)C4(C)CCOCC4)nc3)ccn2)o1 [Example 163, 4-methyl-N-((5-((2-(2-methyloxazol-5-yl)pyridin-4-yl)oxy)pyridin-2-yl)carbamoyl)tetrahydro-2H-pyran-4-carboxamide] | 0.01 to 0.1 | 0.01 to 0.1 | 0.01 to 0.1 | 0.1 to 1 | > 1 |
| COC1(C(=O)NC(=O)Nc2ccc(Oc3ccnc(-c4cc(C)no4)c3)c(C)n2)CCCC1 [Example 166, 1-methoxy-N-((6-methyl-5-((2-(3-methylisoxazol-5-yl)pyridin-4-yl)oxy)pyridin-2-yl)carbamoyl)cyclopentanecarboxamide] | 0.01 to 0.1 | 0.01 to 0.1 | < 0.01 | 0.1 to 1 | 0.1 to 1 |
